Each block holds one molecule with its values, some of them ahead of it. The source made the active and inactive calls. No cut-off for these calls is given here. Peptide text beside a SMILES is read from it. * marks the point of attachment. Cbz = O=C(OCc1ccccc1)*
Legend:
[1] = target: T1, Estrogen receptor (Homo sapiens) (UniProt P03372); test: Binding affinity to ERalpha (unknown origin) assessed as relative binding affinity incubated for 2 hrs in presence of coumestrol by fluorescence polarization based competitive binding assay relative to estradiol
T1 sequence (whole entry): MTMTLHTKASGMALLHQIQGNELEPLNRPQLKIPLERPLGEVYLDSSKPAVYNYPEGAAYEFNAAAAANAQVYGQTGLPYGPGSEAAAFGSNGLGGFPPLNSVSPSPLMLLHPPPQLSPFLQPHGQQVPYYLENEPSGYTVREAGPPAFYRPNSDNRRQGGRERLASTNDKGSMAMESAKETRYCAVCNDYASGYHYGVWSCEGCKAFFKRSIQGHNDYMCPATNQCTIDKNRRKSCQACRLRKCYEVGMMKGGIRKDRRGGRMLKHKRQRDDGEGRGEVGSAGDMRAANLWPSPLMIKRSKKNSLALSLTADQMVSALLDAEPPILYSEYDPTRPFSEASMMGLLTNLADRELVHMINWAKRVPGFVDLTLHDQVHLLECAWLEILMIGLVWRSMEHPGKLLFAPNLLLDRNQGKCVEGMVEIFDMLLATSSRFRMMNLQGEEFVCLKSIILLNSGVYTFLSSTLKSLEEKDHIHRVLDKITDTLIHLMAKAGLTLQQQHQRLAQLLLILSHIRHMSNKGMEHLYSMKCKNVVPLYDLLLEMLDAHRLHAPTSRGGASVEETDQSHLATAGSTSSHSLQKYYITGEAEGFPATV

MCF7 [2] = test: Antiproliferative activity against human MCF7 cells assessed as reduction in cell viability incubated for 48 hrs by MTT assay; format: functional, cell-based; details: MCF7, 48 h
[3] = target: T2, von Hippel-Lindau disease tumor suppressor/Estrogen receptor (Homo sapiens, UniProt P03372+P40337); test: PROTAC activity at VHL/ERalpha in human MCF7 cells assessed as induction of ERalpha degradation at 5 uM by Western blot analysis; format: cell-based
Target sequence in this assay (P40337 whole entry, looked up, one chain of several): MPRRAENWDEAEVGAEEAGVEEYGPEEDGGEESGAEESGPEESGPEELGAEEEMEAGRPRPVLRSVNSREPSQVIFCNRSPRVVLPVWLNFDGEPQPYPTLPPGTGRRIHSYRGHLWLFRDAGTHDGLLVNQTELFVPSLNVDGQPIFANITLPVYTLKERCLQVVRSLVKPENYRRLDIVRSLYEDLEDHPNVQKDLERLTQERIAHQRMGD

[4] = target: Estrogen receptor beta (Homo sapiens) (UniProt Q92731); test: Binding affinity to ERbeta (unknown origin) assessed as relative binding affinity incubated for 2 hrs in presence of coumestrol by fluorescence polarization based competitive binding assay relative to estradiol
DU-145 = test: Antiproliferative activity against human DU-145 cells assessed as reduction in cell viability incubated for 48 hrs by MTT assay; format: functional, cell-based; details: DU-145, 48 h
[5] = Selectivity ratio of RBA for ERalpha (unknown origin) to RBA for ERbeta (unknown origin)
MCF7 [6] = test: Effect on ERalpha expression in human MCF7 cells at 5 uM incubated for 24 hrs by Western blot analysis; format: functional, cell-based
[7] = GSH reactivity of compound assessed as change in fluorescence response; format: physicochemical
[8] = Chemical reactivity of compound to lysine assessed as change in fluorescence response; format: physicochemical
[9] = Chemical reactivity of compound to KCl assessed as change in fluorescence response; format: physicochemical
[10] = Drug uptake in ER positive human MCF7 cells assessed as increase in red fluorescence at 10 uM incubated for 30 mins in glucose-depleted DMEM medium by confocal laser scanning microscopic analysis; format: ADME, cell-based; details: mcf7, 0.5 h
[11] = Chemical reactivity of compound to MgCl2 assessed as change in fluorescence response; format: physicochemical
[12] = target: T2, von Hippel-Lindau disease tumor suppressor/Estrogen receptor; test: PROTAC activity at VHL/ERalpha in human MCF7 cells assessed as induction of ERalpha degradation by measuring decrease in green fluorescence at 10 uM measured after 24 hrs by anti-ERalpha based immunofluorescence analysis; format: cell-based
Target sequence in this assay (P40337 whole entry, looked up, one chain of several): as above

[13] = Photostability of the compound in DMSO/PBS solution assessed as decrease in fluorescence intensity at 466 nm excitation with Hamamatsu LC8 lightning cure (300 W) light for 2 hrs by fluorescence based analysis relative to initial value; format: physicochemical; parameters: dose or concentration left out as unconfirmed; details: read-out: Activity
[14] = target: T2, von Hippel-Lindau disease tumor suppressor/Estrogen receptor; test: PROTAC activity at VHL/ERalpha in human MCF7 cells assessed as induction of ERalpha degradation at 0.05 to 0.5 uM incubated for 24 hrs in presence of 4-OHT by Western blot analysis; format: cell-based; details: dose 0.05-0.5 µM
Target sequence in this assay (P40337 whole entry, looked up, one chain of several): as above

[15] = Drug uptake in ER positive human MCF7 cells assessed as increase in red fluorescence at 10 uM incubated for 30 mins in glucose-depleted DMEM medium in presence of estradiol by confocal laser scanning microscopic analysis; format: ADME, cell-based; details: mcf7, 0.5 h
[16] = Chemical reactivity of compound to NaNO2 assessed as change in fluorescence response; format: physicochemical
[17] = target: T2, von Hippel-Lindau disease tumor suppressor/Estrogen receptor; test: PROTAC activity at VHL/ERalpha in human MCF7 cells assessed as induction of ERalpha degradation incubated for 24 hrs by Western blot analysis; format: cell-based
Target sequence in this assay (P40337 whole entry, one chain of several): as the sequence (P40337 whole entry, looked up, one chain of several) above

[18] = Chemical reactivity of compound to glycine assessed as change in fluorescence response; format: physicochemical
[19] = Chemical reactivity of compound to CaCl2 assessed as change in fluorescence response; format: physicochemical
[20] = target: T2, von Hippel-Lindau disease tumor suppressor/Estrogen receptor; test: PROTAC activity at VHL/ERalpha in human MCF7 cells assessed as induction of ERalpha degradation at 0.5 uM incubated for 24 hrs in presence of MG132 by Western blot analysis; format: cell-based
Target sequence in this assay (P40337 whole entry, looked up, one chain of several): as above

[21] = Drug uptake in human MCF7 cells assessed as increase in red fluorescence at 10 uM measured after 24 hrs by confocal laser scanning microscopic analysis; format: ADME, cell-based; details: mcf7, 24 h
[22] = Chemical reactivity of compound to NaHCO3 assessed as change in fluorescence response; format: physicochemical
[23] = target: T2, von Hippel-Lindau disease tumor suppressor/Estrogen receptor; test: PROTAC activity at VHL/ERalpha in human MCF7 cells assessed as induction of ERalpha degradation at 0.5 uM incubated for 24 hrs in presence of VHL ligand by Western blot analysis; format: cell-based
Target sequence in this assay (P40337 whole entry, looked up, one chain of several): as above

[24] = Chemical reactivity of compound to methionine assessed as change in fluorescence response; format: physicochemical
[25] = Chemical reactivity of compound to […] assessed as change in fluorescence response; format: physicochemical

Chain of Estrogen receptor beta (Homo sapiens) (Q92731 whole entry): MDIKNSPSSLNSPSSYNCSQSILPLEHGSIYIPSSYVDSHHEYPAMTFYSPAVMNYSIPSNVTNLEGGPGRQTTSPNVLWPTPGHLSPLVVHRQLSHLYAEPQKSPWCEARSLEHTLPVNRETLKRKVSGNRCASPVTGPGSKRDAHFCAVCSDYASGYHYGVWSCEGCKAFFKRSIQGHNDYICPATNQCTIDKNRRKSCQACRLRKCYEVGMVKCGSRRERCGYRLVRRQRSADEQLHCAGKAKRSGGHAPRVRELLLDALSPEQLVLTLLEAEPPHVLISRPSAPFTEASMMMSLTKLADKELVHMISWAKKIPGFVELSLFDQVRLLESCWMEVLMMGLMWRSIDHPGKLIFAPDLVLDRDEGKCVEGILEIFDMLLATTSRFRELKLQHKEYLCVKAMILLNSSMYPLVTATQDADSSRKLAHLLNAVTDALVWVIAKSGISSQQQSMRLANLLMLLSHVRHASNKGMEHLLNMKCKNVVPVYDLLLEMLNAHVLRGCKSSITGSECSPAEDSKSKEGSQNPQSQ

RBA [1]: 2.11%
IC50 (MCF7 [2]): 33500 nM
Activity [3]: Active
RBA [4]: 1.4%
IC50 (DU-145): > 100000 nM
Selectivity ratio [5]: 1.51
Compound: Cc1ncsc1-c1ccc([C@H](C)NC(=O)[C@@H]2C[C@@H](O)CN2C(=O)[C@@H](NC(=O)CCCCCCCCCCCOc2cc(O)ccc2/C=C/C2=CC(=C(C#N)C#N)c3cc(O)ccc3O2)C(C)(C)C)cc1

RBA [1]: 2.48%
IC50 (MCF7 [2]): 110 nM
Activity [3]: Active
RBA [4]: 0.65%
IC50 (DU-145): > 100000 nM
Selectivity ratio [5]: 3.79
Compound: Cc1ncsc1-c1ccc([C@H](C)NC(=O)[C@@H]2C[C@@H](O)CN2C(=O)[C@@H](NC(=O)CCCCCCCOc2cc(O)ccc2/C=C/C2=CC(=C(C#N)C#N)c3cc(O)ccc3O2)C(C)(C)C)cc1

Continued, molecule first:

Compound: C[C@]12CC[C@@H]3c4ccc(O)cc4C[C@@H](CCCCCCCCC[S+]([O-])CCCC(F)(F)C(F)(F)F)[C@H]3[C@@H]1CC[C@@H]2O (stereo not given in full) [FULVESTRANT]
IC50 (MCF7 [2]): 3 nM

Compound: Cc1ncsc1-c1ccc([C@H](C)NC(=O)[C@@H]2C[C@@H](O)CN2C(=O)[C@@H](NC(=O)CCCCCOc2cc(O)ccc2/C=C/C2=CC(=C(C#N)C#N)c3cc(O)ccc3O2)C(C)(C)C)cc1
RBA [1]: 3.69%
IC50 (MCF7 [2]): > 100000 nM
Activity [3]: Active
RBA [4]: 2.48%
IC50 (DU-145): > 100000 nM
Selectivity ratio [5]: 1.48

Compound: CC(C)C[C@@H](C=O)NC(=O)[C@H](CC(C)C)NC(=O)[C@H](CC(C)C)NC(=O)OCc1ccccc1 (Cbz-Leu-Leu-Leu-aldehyde)
Activity (MCF7 [6]): inactive

Compound: Cc1ncsc1-c1ccc([C@H](C)NC(=O)[C@@H]2C[C@@H](O)CN2C(=O)[C@@H](NC(=O)CCCCCCCCCOc2cc(O)ccc2/C=C/C2=CC(=C(C#N)C#N)c3cc(O)ccc3O2)C(C)(C)C)cc1
Drug metabolism [7]: metabolite_notdetected
Activity [8]: Not_active
Activity [9]: Not_active
RBA [1]: 7.99%
Drug uptake [10]: Active
IC50 (MCF7 [2]): 51 nM
Activity [11]: Not_active
Activity [12]: Active; Nearly Complete Disappearance Of Fluorescence Observed
degraded at 2 h [13]: < 5%
Activity [14]: inactive
Drug uptake [15]: Not_active
Activity [16]: Not_active
DC50 [17]: 120 nM
Activity [18]: Not_active
Activity [3]: Active
RBA [4]: 3.94%
IC50 (DU-145): > 100000 nM
Activity [19]: Not_active
Activity [20]: Not active; Mg132 Partly Blocked The Degradation
Selectivity ratio [5]: 2.03
Drug uptake [21]: Active
Activity [22]: Not_active
Activity [23]: inactive
Activity [24]: Not_active
Activity [25]: Not_active

From ChEMBL document CHEMBL6083176, “Fluorescence theranostic PROTACs for real-time visualization of ERα degradation” (Eur J Med Chem, 2024)
